Patent US5382670A, “Platelet activating factor antagonists” (priority 1993, dated 1995)
pKi: −log10 of the molar value. Counter-ions that a name gives are not always drawn. Like-named read-outs stand apart in the source and are kept apart here.

Target: PAF receptor (Oryctolagus cuniculus, UniProt G1TEI7)
Assay: PAF receptor binding assay: inhibition of specific [3H]C18-PAF binding to rabbit platelet membranes
Conditions: 0.6 nM [3H]C18-PAF, 60 min, 22-23 °C, Ki from IC50 (Cheng and Prusoff)
Summary of the method: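 Rabbit platelet membranes (10 μg protein) incubated 60 min at 22-23 °C with 0.6 nM [3H]C18-PAF in TME buffer pH 7.0 plus 0.25% BSA; nonspecific binding with 1 μM PAF. Filtered bound radioactivity counted; IC50 by point-to-point evaluation from ≥4 doses in triplicate, Ki by Cheng-Prusoff.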

[1] = read-out: Ki (PAF Receptor Binding Activity)

Chain of PAF receptor (G1TEI7 1-342): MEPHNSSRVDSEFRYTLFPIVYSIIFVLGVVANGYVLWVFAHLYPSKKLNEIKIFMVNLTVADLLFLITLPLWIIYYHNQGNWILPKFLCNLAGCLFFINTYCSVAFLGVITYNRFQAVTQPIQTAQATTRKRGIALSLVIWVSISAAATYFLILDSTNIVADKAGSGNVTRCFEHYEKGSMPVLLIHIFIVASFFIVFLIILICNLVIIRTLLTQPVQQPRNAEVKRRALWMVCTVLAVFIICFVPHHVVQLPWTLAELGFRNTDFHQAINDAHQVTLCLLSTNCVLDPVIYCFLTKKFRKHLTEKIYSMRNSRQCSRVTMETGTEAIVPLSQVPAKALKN

pKi [1]	SMILES	pKi (Ki (PAF Receptor Binding Activity))
	COc1cc2ccn(C(=O)C3CSC(c4cccnc4)N3)c2cc1OC (stereo not shown) [Example 13, 1-[2-(3-pyridinyl)thiazolid-4-oyl]-5,6-dimethoxyindole dihydrochloride]	5.62
8.15	O=C(C1CSC(c2cccnc2)N1)n1ccc2cc(OCc3ccccc3)ccc21 (stereo not shown) [Example 1, 1-[2-(3-pyridinyl)thiazolid-4-oyl]-5-phenylmethoxyindole]	
6.60	CN(C)C(=O)n1cc(C(=O)C2CSC(c3cccnc3)N2C(=O)C(F)(F)F)c2ccc(OCc3ccccc3)cc21 (single isomer, unassigned; isomer 1) [Example 108, 1-dimethylcarbamoyl-3-[2-(3-pyridinyl)-3-trifluoroacetylthiazolid-4-oyl]-6-phenylmethoxyindole, isomer 1]	
6.82	O=CN1C(C(=O)c2cn(C(=O)N3CCOCC3)c3ccccc23)CSC1c1cccnc1 (stereo not shown) [Example 92, 1-(4-morpholinocarbonyl)-3-[2-(3-pyridinyl)-3-formylthiazolid-4-oyl]indole]	
